Each structure is given as a SMILES string.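 Results reflect a 48-hour exposure of cells in 96-well plates to compound at five concentrations. GI50 marks 50% less growth.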 Active and inactive are the calls of the source. Cut-off read from the data, not from the text of the source: active = GI50 up to about 1.1 µM and inactive = higher. A value given as a limit tells only on which side of the number the result lay.

Some test systems named below: M19-MEL; KM-20L2; DLD-1; SNB-78; DMS-114; XF498; LXFL 529; HOP-18; RXF 631.
What all share (test): inhibition of tumour cell growth, NCI panel, 48 h

With `O=c1[nH]n2c(=O)cc[nH]c2c1-c1nnns1`, the GI50 in the experiment with M19-MEL, in the experiment with KM-20L2, in the experiment on DLD-1, with SNB-78, in the experiment on DMS-114 and in the experiment on XF498 was > 100 µM (inactive) each time. Further, the GI50 in the experiment with LXFL 529 was > 100 µM (inactive).
Regarding `O=C1C(c2ccc([N+](=O)[O-])cc2)=[N+]([O-])c2ccc([N+](=O)[O-])cc21`, the GI50 in the experiment on M19-MEL was 27.6 µM (inactive); in the experiment on HOP-18 it was 54.8 µM (inactive); in the experiment on DLD-1, 33.4 µM (inactive); with SNB-78 it was 79.8 µM (inactive); in the experiment with RXF 631, 35.6 µM (inactive); in the experiment on DMS-114, 30.1 µM (inactive). In addition, in the experiment on LXFL 529, the GI50 was 28.4 µM (inactive).
For the compound `C=C1CCC2C(C)(CO)C(O)CCC2(C)C1CC(O)C1=CCOC1=O` (centres undefined), the GI50 in the experiment on M19-MEL was 45.5 µM (inactive); with HOP-18, 54.7 µM (inactive); in the experiment with KM-20L2, 47.4 µM (inactive); with DLD-1, 86.3 µM (inactive); in the experiment on RXF 631, 30.5 µM (inactive); in the experiment on DMS-114, 41.8 µM (inactive). In addition, in the experiment on LXFL 529, the GI50 is 27 µM (inactive).
For `COC1=C(C)C(=O)C2=C(C1=O)C1C3CC4=C(C(=O)C(OC)=C(C)C4=O)C(CNC(=O)C(C)=O)N3C(C#N)C(C2)N1C` (centres undefined), the GI50 was 0.00634 µM (active) in the experiment on M19-MEL; 0.0553 µM (active) with HOP-18; 0.0149 µM (active) in the experiment with KM-20L2; 0.00254 µM (active) in the experiment on DLD-1; 0.00617 µM (active) with SNB-78; 0.0206 µM (active) with RXF 631. Moreover, the GI50 in the experiment with DMS-114 is 0.00162 µM (active).
With `NCC1(N2CCOCC2)C2CCCC21CO` (centres undefined), the GI50 in the experiment with M19-MEL, with HOP-18, in the experiment with DLD-1, in the experiment on SNB-78, with DMS-114 and in the experiment on LXFL 529 was > 100 µM (inactive) each time.
In the case of `COc1cc(/C=C2\CCC/C(=C\c3ccc(O)c(OC)c3)C2=O)ccc1O` [CYCLOVALONE], the GI50 with M19-MEL is 1.86 µM (inactive); in the experiment on HOP-18, 2.74 µM (inactive); in the experiment with KM-20L2, 15.2 µM (inactive); in the experiment with DLD-1, 1.75 µM (inactive); in the experiment with SNB-78, 2.75 µM (inactive); in the experiment with DMS-114 it was 1.77 µM (inactive). The results for the GI50 in the experiment with XF498 and in the experiment with LXFL 529 were 5.7 µM (inactive) and 1.85 µM (inactive), respectively.
Regarding `CCN(CCCl)CCCCNc1c2ccccc2nc2ccc(OC)cc12`, the GI50 in the experiment with M19-MEL is 0.235 µM (active); in the experiment with KM-20L2, 0.238 µM (active); with DLD-1 it was 0.0891 µM (active); with SNB-78 it was 0.527 µM (active); with RXF 631, 0.553 µM (active); in the experiment with DMS-114 it was 0.323 µM (active). In addition, in the experiment on LXFL 529, the GI50 is 0.0923 µM (active).
As to `O=C(OCCOCBr)c1ccccc1`, the GI50 with HOP-18, in the experiment with KM-20L2, with DLD-1, in the experiment on SNB-78, in the experiment with RXF 631 and in the experiment with DMS-114 was > 100 µM (inactive) throughout. In addition, in the experiment on LXFL 529, the GI50 is > 100 µM (inactive).
Take `C/N=C(\N)c1ccc(NC(=N)c2ccc(C(=N)Nc3ccc(/C(N)=N/C)cc3)cc2)cc1`: the GI50 in the experiment with M19-MEL, with RXF 631, in the experiment on DMS-114 and in the experiment with LXFL 529 was > 100 µM (inactive) in each case.
Consider `O=C(CCC(=O)Nc1ccc(Cl)c(Cl)c1)Cc1nc2ccccc2o1`, for which the GI50 in the experiment with M19-MEL, in the experiment on HOP-18, in the experiment on KM-20L2, in the experiment on SNB-78, with RXF 631 and with DMS-114 was > 100 µM (inactive) in each case. The GI50 in the experiment on LXFL 529 was > 100 µM (inactive).
Regarding `CCOc1cc2ccc3c4cc(OC)c(OC)cc4cnc3c2cc1OCC`, the GI50 in the experiment on M19-MEL, in the experiment on HOP-18, in the experiment on KM-20L2, in the experiment with DLD-1, in the experiment on SNB-78 and in the experiment on DMS-114 was > 100 µM (inactive) throughout. Also, the GI50 in the experiment with XF498 and with LXFL 529 was > 100 µM (inactive) in each case.
For the compound `Nc1ccc(C(=O)CC2(O)C(=O)Nc3c(Cl)cc(Cl)cc32)cc1` (centres undefined), the GI50 in the experiment on M19-MEL was 47 µM (inactive); with HOP-18 it was 90.6 µM (inactive); in the experiment with KM-20L2 it was > 100 µM (inactive); in the experiment on DLD-1, 42.9 µM (inactive); in the experiment with RXF 631 it was 28.8 µM (inactive); in the experiment with LXFL 529, 37.8 µM (inactive).
For `Cn1cc2ccccc2c1-c1nc(F)nc(Oc2ccc3c(c2)CC[C@@H]2C3CC[C@]3(C)C(O)CCC23)n1` (some centres undefined), the GI50 was 21.7 µM (inactive) in the experiment on M19-MEL; 15.3 µM (inactive) in the experiment with HOP-18; 20.2 µM (inactive) in the experiment on KM-20L2; 15.9 µM (inactive) in the experiment with DLD-1; 12.2 µM (inactive) with SNB-78; 13.8 µM (inactive) with DMS-114. Further, in the experiment with LXFL 529, the GI50 was 10.4 µM (inactive).
With `COc1cccc(NC(=O)CSc2nnc(-c3ccc(/N=C\c4ccc(Cl)cc4)cc3)o2)c1`, the GI50 is 22.8 µM (inactive) in the experiment with M19-MEL; 40 µM (inactive) in the experiment on HOP-18; 16.9 µM (inactive) in the experiment on KM-20L2; 40.3 µM (inactive) in the experiment with SNB-78; 20.5 µM (inactive) in the experiment on DMS-114; 19.2 µM (inactive) in the experiment on XF498. The GI50 in the experiment with LXFL 529 is 19.8 µM (inactive).
As to `COc1cc(C(Cc2ccccc2)NC(C)=O)oc(=O)c1` (centres undefined), the GI50 with M19-MEL, in the experiment with KM-20L2, with DLD-1, in the experiment on DMS-114, in the experiment on XF498 and in the experiment with LXFL 529 was > 100 µM (inactive) in each case.
In the case of `COC(=O)/C=C/C(=O)C1C(C(=O)OC)C2(C(=O)OC)CCC1(C(=O)OC)N2` (centres undefined), the GI50 in the experiment with M19-MEL was > 100 µM (inactive); with HOP-18 it was > 100 µM (inactive); with DLD-1, > 100 µM (inactive); in the experiment with SNB-78 it was > 100 µM (inactive); with DMS-114, > 100 µM (inactive); in the experiment on XF498, 0.198 µM (active).
For `C=CC[C@@]1(C#N)C[C@H](C[C@]2(C#N)C[C@H](CCl)OC(C)(C)O2)OC(C)(C)O1`, the GI50 in the experiment on M19-MEL is > 100 µM (inactive); with HOP-18, > 100 µM (inactive); in the experiment with KM-20L2, > 100 µM (inactive); in the experiment with DLD-1, > 100 µM (inactive); in the experiment on DMS-114 it was 41.2 µM (inactive); in the experiment with XF498 it was 81.1 µM (inactive).
As for `COC(=O)/C([Se]c1c(C)cc(C)cc1C)=C(\[Se]c1c(C)cc(C)cc1C)C(=O)OC`, the GI50 in the experiment with M19-MEL, with HOP-18, in the experiment with KM-20L2, in the experiment with DLD-1, with SNB-78 and in the experiment on RXF 631 was > 100 µM (inactive) each time. Further, the GI50 in the experiment on DMS-114 and with LXFL 529 was > 100 µM (inactive) each time.
Consider `[O-][N+]1=C(c2ccccc2)COc2ccccc21`, for which the GI50 with M19-MEL is > 100 µM (inactive); in the experiment with HOP-18, > 100 µM (inactive); in the experiment with KM-20L2 it was > 100 µM (inactive); with DLD-1, > 100 µM (inactive); in the experiment with SNB-78, > 100 µM (inactive); with RXF 631, 70.1 µM (inactive). Further, the GI50 in the experiment on DMS-114 and in the experiment on LXFL 529 was > 100 µM (inactive) throughout.

For the origin of these results see ChEMBL document CHEMBL1201862, “PubChem BioAssay data set” (2004).
